Laboratory results published in patent US20150313906A1, “COMBINATION” (GLAXOSMITHKLINE LLC, priority 2012, published 2015).
Where two headings read alike, the source gives them in different places.

Assays:
[1] = test system: KARPAS-422, a DLBCL line harboring a Y641N mutation in EZH2; test: DLBCL cell growth (CellTiter-Glo) with BCL-2 inhibitor after Compound A pre-treatment, KARPAS-422; settings: for IC50: read-out: gIC50
Experimental: (§1) Plates were incubated for 6 days at 37° C. in 5% CO2. Cells were then lysed with CellTiter-Glo (CTG) (Promega) according to the manufacturer's protocol and chemiluminescent signal was detected with a TECAN Safire2 microplate reader. CTG estimates cell number through detection of cellular ATP levels. In addition, an untreated plate of cells was harvested at the time of compound addition (T0) to quantify the starting number of cells. CTG values were expressed as a percent of the T0 value and plotted against compound concentration.

[2] = test system: WSU-DLCL-2, a DLBCL line harboring a Y641F mutation in EZH2; test: DLBCL cell growth (CellTiter-Glo) with BCL-2 inhibitor after Compound A pre-treatment, WSU-DLCL2; format: cell-based; settings: Homo sapiens, read-out: gIC50
Experimental: as §1

[3] = test system: Farage, a DLBCL line harboring WT EZH2; test: DLBCL cell growth (CellTiter-Glo) with BCL-2 inhibitor after Compound A pre-treatment, Farage; format: cell-based; settings: for IC50: read-out: gIC50
Experimental: as §1

[4] = test system: SU-DHL-6, a DLBCL line harboring a Y641N mutation in EZH2; test: DLBCL cell growth (CellTiter-Glo) with BCL-2 inhibitor after Compound A pre-treatment, SU-DHL-6; format: cell-based; settings: for IC50: Homo sapiens, read-out: gIC50
Experimental: as §1

[5] = KARPAS-422, BCL2 inhibitor alone (no Compound A), 6 days
[6] = KARPAS-422, Compound A 100 nM 72 h pre-treatment then 6 day co-treatment
[7] = KARPAS-422, Compound A 500 nM 72 h pre-treatment then 6 day co-treatment
[8] = WSUDLCL2, 144 h, WSU-DLCL2, BCL2 inhibitor alone (no Compound A), 6 days
[9] = WSUDLCL2, WSU-DLCL2, Compound A 250 nM 72 h pre-treatment then 6 day co-treatment
[10] = 144 h, BCL2 inhibitor alone (no Compound A), 6 days
[11] = Compound A 1 μM 72 h pre-treatment then 6 day co-treatment
[12] = 144 h, SU-DHL-6, BCL2 inhibitor alone (no Compound A), 6 days
[13] = SU-DHL-6, Compound A 250 nM 72 h pre-treatment then 6 day co-treatment

For `CC1(C)CCC(c2ccc(Cl)cc2)=C(CN2CCN(c3ccc(C(=O)NS(=O)(=O)c4ccc(N[C@H](CCN5CCOCC5)CSc5ccccc5)c(S(=O)(=O)C(F)(F)F)c4)cc3)CC2)C1` [ABT-263], the “Fold shift in potency over ABT-263 alone” value ([1]; KARPAS-422, Compound A 100 nM) was 2.8, the “Fold shift in potency over ABT-263 alone” value ([1]; KARPAS-422, Compound A 500 nM) was 423 and the IC50 [1, 5] was 169 nM. For the same compound, the IC50 [1, 6] was 60 nM, the IC50 [1, 7] was 0.4 nM and the IC50 [2, 8] was 464 nM. The IC50 [2, 9] was 1150 nM, the IC50 [3, 10] was 455 nM and the “Fold shift in potency over ABT-263 alone” value ([3]; Compound A 1 μM) was 43. It also gave an IC50 [3, 11] of 11 nM, an IC50 [4, 12] of 518 nM and an IC50 [4, 13] of 17 nM. For the same compound, the “Fold shift in potency over ABT-263 alone” value ([4]; SU-DHL-6, Compound A 250 nM) was 31.

In the case of `CN(C)CC[C@H](CSc1ccccc1)Nc1ccc(S(=O)(=O)NC(=O)c2ccc(N3CCN(Cc4ccccc4-c4ccc(Cl)cc4)CC3)cc2)cc1[N+](=O)[O-]` [ABT-737], the “Fold shift in potency over ABT-737 alone” value ([1]; KARPAS-422, Compound A 100 nM) is reported as 4.3, the “Fold shift in potency over ABT-737 alone” value ([1]; KARPAS-422, Compound A 500 nM) is reported as 304 and the IC50 [1, 5] is reported as 334 nM. The IC50 [1, 6] was 78 nM, the IC50 [1, 7] was 1.1 nM and the IC50 [2, 8] was 1410 nM. The IC50 [2, 9] was 971 nM, the IC50 [3, 10] was 4710 nM and the “Fold shift in potency over ABT-737 alone” value ([3]; Compound A 1 uM) was 19. It also gave an IC50 [3, 11] of 246 nM, an IC50 [4, 12] of 1330 nM and an IC50 [4, 13] of 110 nM. The “Fold shift in potency over ABT-737 alone” value ([4]; SU-DHL-6, Compound A 250 nM) was 12.
